The record followed here is patent US12612420B2, “Arginase inhibitors and methods of use thereof” (Molecure S.A., priority 2020, dated 2026).

Experiment [1] deals with T1, intracellular arginase in macrophages isolated from murine bone marrow (BMDM) (Mus musculus, UniProt Q61176).
T1 construct: endogenous in cells; host or cells: primary bone-marrow-derived macrophages from C57BL/6 mice, cultured with M-CSF, TGF-β and IL-4
T1 sequence (Q61176 1-323): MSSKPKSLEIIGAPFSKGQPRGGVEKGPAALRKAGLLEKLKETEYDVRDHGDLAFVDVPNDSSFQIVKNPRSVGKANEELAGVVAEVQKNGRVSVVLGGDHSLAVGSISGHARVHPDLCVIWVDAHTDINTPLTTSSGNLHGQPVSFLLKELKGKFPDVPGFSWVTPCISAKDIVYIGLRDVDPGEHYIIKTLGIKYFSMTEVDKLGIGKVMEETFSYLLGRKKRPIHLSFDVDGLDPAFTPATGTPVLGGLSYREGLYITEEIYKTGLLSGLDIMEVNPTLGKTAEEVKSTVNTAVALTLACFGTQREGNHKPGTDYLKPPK
The experiment is described as follows: Cell-based assay: intracellular arginase in bone marrow derived macrophages (BMDM), urea in culture medium. Also noted: species or system murine (C57BL/6 mice). Conditions: IC50 class; M2-polarised murine BMDM (M-CSF, TGF-β, IL-4), urea in medium after 24 hours. On the procedure: To illustrate the lower cellular activity of the compounds according to the invention versus arginase inhibitors disclosed in U.S. Ser. No. 10/391,077 B2, the selected examples were tested in cell-based assay using murine primary macrophages. Lower intracellular activity observed for the compounds according to the invention may potentially result in lower hepatotoxicity compared to the arginase inhibitors disclosed in U.S. Ser. No. 10/391,077 B2.
Efficacy of Selected Examples Towards Intracellular Arginase in Macrophages Isolated from Murine Bone Marrow—Bone Marrow Derived Macrophages (BMDM)
Murine bone marrow-derived or peritoneal macrophages comprise a convenient in vitro model that enables differentiation of these cells towards M1 or M2 macrophages and further use for the study.
Materials & Methods: The assay was performed according to modified literature protocol (Pineda-Torra I et al., Methods Mol Biol. 2015; 1339:101-9. Mia S et al., Scand J Immunol. 2014 May; 79(5):305-14). The femurs and tibias were isolated from C57BL/6 mice. Bones were cleaned from all attached tissues by using a sterile swab without affecting the bone structure. The sides of the bones were cut off and flush with cold sterile PBS by using 26-G needle S into a 50 mL sterile tube with a cell strainer (Falcon™, Cat. No. U00149), until the bone cavity appeared white. Then, the cells were centrifuged (5 min at 500×G, 4° C.), washed twice with PBS and counted. Cells were plated in Petri dish in density of 1×10^6/mL and cultured in DMEM (Gibco, Cat. No. 31331-029) with 10% FBS, 1% pen-strep and 50 ng/mL M-CSF (PeproTech, Cat. No. 315-02), (37° C., 5% CO2). After five days cells were subcultured into P96 plate (BD, Cat. No. 353072) at the density of 64,000 cells/well in medium supplemented with 50 ng/mL M-CSF, 20 ng/mL TGF-β and 30 ng/mL IL-4 (Biomibo Cat. No. 214-1). One day later exemplary compounds (dissolved in PBS) were added in several different concentrations and 24 hours later the level of urea was measured in the culture medium in each well (Jung D et al., Clin Chem. 1975, 21(8):1136-40). The concentration of urea in the absence of any compound was considered as the maximum enzyme activity. The absorbance of cell culture media (background) was subtracted from all the values.
The IC50 values were calculated using GraphPad Prism 7.0. and assigned into the following classes: A=10-100 μM; and B>100 μM.

Experiment [2] addresses T2, recombinant human arginase 1 (hARG1) (Homo sapiens, UniProt P05089).
T2 construct: made in house; host or cells: E. coli
T2 sequence (P05089 1-322): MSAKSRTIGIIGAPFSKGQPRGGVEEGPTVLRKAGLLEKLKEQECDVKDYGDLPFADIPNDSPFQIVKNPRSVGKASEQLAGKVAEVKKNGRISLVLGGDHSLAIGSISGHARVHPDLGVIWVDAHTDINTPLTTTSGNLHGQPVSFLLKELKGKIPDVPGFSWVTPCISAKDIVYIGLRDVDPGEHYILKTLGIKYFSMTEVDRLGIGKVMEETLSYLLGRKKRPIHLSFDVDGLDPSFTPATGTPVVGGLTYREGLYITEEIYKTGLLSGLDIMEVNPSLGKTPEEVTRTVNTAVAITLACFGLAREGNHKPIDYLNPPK
Nature of the experiment: Human arginase inhibition assay (colorimetric urea detection), arginase 1. The format is biochemical. Conditions: IC50 class; hydrochloride salts; 1 h at 37° C., pH 7.4, 10 mM L-arginine, 200 μM MnCl2; read-out: Activity Class (ARG I). On the procedure:
(§1) Human Arginase Inhibition Assay
(§2) The inhibitory activities of the compounds of the invention were assessed using recombinant human arginases 1 and 2. Both enzymes were biosynthesized using a prokaryotic expression system (E. coli) and purified by fast protein liquid chromatography (FPLC). The compounds were screened in 96-well plates at the total reaction volume of 100 μL. Briefly, recombinant enzymes were incubated with the tested compounds for 1 h at 37° C. in the reaction buffer (100 mM sodium phosphate buffer, 130 mM NaCl, 1 mg/mL BSA, pH 7.4) containing substrate (L-arginine hydrochloride, 10 mM for hARG1 and 20 mM for hARG2) and cofactor (200 μM MnCl2). The assay is based on the detection of urea, which is generated during the conversion of L-arginine into L-omithine catalyzed by ARG1 or ARG2 (Baggio et al. J Pharmacol. Exp. Ther. 1999, 290, 1409-1416). The colorimetrically detectable product was developed by adding a mixture of reagent A (4 mM oPA, 50 mM boric acid, 1 M sulfuric acid, 0.03% Brij-35) and reagent B (4 mM NED, 50 mM boric acid, 1 M sulfuric acid, 0.03% Brij-35) in equal proportions. The absorbance for each well was measured at 515 nm and the enzyme inhibition was calculated. The urea production in the absence of any tested compound was considered as maximal enzyme activity. The absorbance at the absence of arginase (background) was subtracted from all the values. The normalized values were analyzed using GraphPad Prism 7.0 software by plotting inhibition curves and determining the IC50 values.
(§3) The inhibitory activity classes of the hydrochloride salts of the exemplary compounds according to the invention are presented in Table 1

In experiment [3] the target is T3, recombinant human arginase 2 (hARG2) (Homo sapiens, UniProt P78540).
T3 construct: made in house; host or cells: E. coli
T3 sequence (P78540 23-354): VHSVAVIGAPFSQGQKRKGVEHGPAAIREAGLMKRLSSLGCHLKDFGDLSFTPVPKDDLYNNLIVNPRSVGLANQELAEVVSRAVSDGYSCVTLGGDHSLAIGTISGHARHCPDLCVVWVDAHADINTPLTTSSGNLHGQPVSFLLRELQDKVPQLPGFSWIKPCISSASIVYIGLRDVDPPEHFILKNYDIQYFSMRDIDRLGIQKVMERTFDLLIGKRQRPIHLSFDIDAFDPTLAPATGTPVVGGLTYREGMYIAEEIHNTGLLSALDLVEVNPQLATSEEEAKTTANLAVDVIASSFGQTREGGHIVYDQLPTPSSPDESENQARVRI
Nature of the experiment: Human arginase inhibition assay (colorimetric urea detection), arginase 2. The experiment is classed as biochemical. The conditions noted are these: IC50 class; hydrochloride salts; 1 h at 37° C., pH 7.4, 20 mM L-arginine, 200 μM MnCl2; read-out: Activity Class (ARG II). On the procedure: as §1, §2, §3

Structures are written as SMILES. Structures can show the parent of a compound that is named as a salt.

Take `CC(C)[C@H](N)C(=O)NC[C@@H]1CC[C@@H](CCB(O)O)C[C@]1(N)C(=O)O` [Example 2, (1R,2S,5R)-1-Amino-2-(((S)-2-amino-3-methylbutanamido)methyl)-5-(2-boronoethyl)cyclohexane-1-carboxylic acid dihydrochloride]: the IC50 in experiment [1] lay within 10000 to 100000 nM; in experiment [2], 100 to 199 nM; in experiment [3] it was 200 to 299 nM.
Regarding `N[C@@H](Cc1ccccc1)C(=O)NC[C@@H]1CC[C@@H](CCB(O)O)C[C@]1(N)C(=O)O` [Example 3, (1R,2S,5R)-1-Amino-2-(((S)-2-amino-3-phenylpropanamido)methyl)-5-(2-boronoethyl)cyclohexane-1-carboxylic acid dihydrochloride], the IC50 is greater than 100000 nM in experiment [1], greater than 300 nM in experiment [2] and greater than 300 nM in experiment [3].
On to `NCC(=O)NC[C@@H]1CC[C@@H](CCB(O)O)C[C@]1(N)C(=O)O` [Example 4, (1R,2S,5R)-1-Amino-2-((2-aminoacetamido)methyl)-5-(2-boronoethyl)cyclohexane-1-carboxylic acid dihydrochloride], for which the IC50 is greater than 100000 nM in experiment [1], 1 to 99 nM in experiment [2] and greater than 300 nM in experiment [3].
For `N[C@]1(C(=O)O)C[C@H](CCB(O)O)CC[C@H]1CNC(=O)[C@@H]1CCCN1` [Example 5, (1R,2S,5R)-1-Amino-5-(2-boronoethyl)-2-(((S)-pyrrolidine-2-carboxamido)methyl)cyclohexane-1-carboxylic acid dihydrochloride] the same measures were greater than 100000 nM, 1 to 99 nM and greater than 300 nM.
With `CC(C)C[C@H](N)C(=O)NC[C@@H]1CC[C@@H](CCB(O)O)C[C@]1(N)C(=O)O` [Example 6, (1R,2S,5R)-1-Amino-2-(((S)-2-amino-4-methylpentanamido)methyl)-5-(2-boronoethyl)cyclohexane-1-carboxylic acid dihydrochloride], the IC50 in experiment [1] is 10000 to 100000 nM; in experiment [2] it was 1 to 99 nM; in experiment [3] it was 100 to 199 nM.
As to `NCCCC[C@H](N)C(=O)NC[C@@H]1CC[C@@H](CCB(O)O)C[C@]1(N)C(=O)O` [Example 9, (1R,2S,5R)-1-Amino-5-(2-boronoethyl)-2-(((S)-2,6-diaminohexanamido)methyl)cyclohexane-1-carboxylic acid trihydrochloride], the results for the IC50 in experiment [1], in experiment [2] and in experiment [3] were greater than 100000 nM, 1 to 99 nM and greater than 300 nM, respectively.
Regarding `N[C@@H](CCC(=O)O)C(=O)NC[C@@H]1CC[C@@H](CCB(O)O)C[C@]1(N)C(=O)O` [Example 30, (1R,2S,5R)-1-Amino-2-(((S)-2-amino-4-carboxybutanamido)methyl)-5-(2-boronoethyl)cyclohexane-1-carboxylic acid dihydrochloride], the IC50 in experiment [2] and in experiment [3] was greater than 300 nM in each case.
With `CNCC(=O)NC[C@@H]1CC[C@@H](CCB(O)O)C[C@]1(N)C(=O)O` [Example 31, (1R,2S,5R)-1-Amino-5-(2-boronoethyl)-2-((2-(methylamino)acetamido)methyl)cyclohexane-1-carboxylic acid dihydrochloride], the IC50 is 100 to 199 nM in experiment [2] and greater than 300 nM in experiment [3].
Turning to `COC(=O)[C@@]1(N)C[C@H](CCB(O)O)CC[C@H]1CNC(=O)[C@@H](N)C(C)C` [Example 32, (2-((1R,3R,4S)-3-Amino-4-(((S)-2-amino-3-methylbutanamido)methyl)-3-(methoxycarbonyl)cyclohexyl)ethyl)boronic acid dihydrochloride], the IC50 in experiment [2] and in experiment [3] was greater than 300 nM in each case.
As for `CC(C)[C@H](N)C(=O)NC[C@@H]1CC[C@@H](CCB2OC(=O)CC(CC(=O)O)(C(=O)O)O2)C[C@]1(N)C(=O)O` (stereo partly drawn) [Example 33, 2-(2-((1R,3R,4S)-3-Amino-4-(((S)-2-amino-3-methylbutanamido)methyl)-3-carboxycyclohexyl)ethyl)-4-(carboxymethyl)-6-oxo-1,3,2-dioxaborinane-4-carboxylic acid dihydrochloride], the IC50 was 100 to 199 nM in experiment [2] and greater than 300 nM in experiment [3].
Taken in the same sequence, the figures for `CC(C)[C@H](N)C(=O)NC[C@H]1CC[C@@H](CCB(O)O)C[C@]1(N)C(=O)O` [Example 34, (1R,2R,5R)-1-Amino-2-(((S)-2-amino-3-methylbutanamido)methyl)-5-(2-boronoethyl)cyclohexane-1-carboxylic acid dihydrochloride] were greater than 300 nM and greater than 300 nM.
For `CCN[C@]1(C(=O)O)C[C@H](CCB(O)O)CC[C@H]1CNC(=O)[C@H](C)N` [Example 35, (1R,2S,5R)-2-(((S)-2-Aminopropanamido)methyl)-5-(2-boronoethyl)-1-(ethylamino)cyclohexane-1-carboxylic acid dihydrochloride] the same measures were greater than 300 nM and greater than 300 nM.
For `CN[C@]1(C(=O)O)C[C@H](CCB(O)O)CC[C@H]1CNC(=O)[C@H](C)N` [Example 36, (1R,2S,5R)-2-(((S)-2-Aminopropanamido)methyl)-5-(2-boronoethyl)-1-(methylamino)cyclohexane-1-carboxylic acid dihydrochloride] the same measures were greater than 300 nM and greater than 300 nM.
